Data reported in patent publication US4175081A, “5-Substituted thiadiazole ureas” (priority 1977, dated 1979).

Tests used:
[1] = tested on: variety of crops and weed species; assay: Pre- and post-emergence herbicide tests, overall assessment of Tables III-VI; format: in vivo; settings: data of Tables III-VI
Description: All crop and weed species were planted individually in 3' plastic pots containing potting soil. Four seeds each of corn, cotton, and snapbeans were seeded to a depth equal to the diameter of the seed. All other species were surface seeded and sprinkled with screened soil in an amount sufficient to cover the seed. Immediately after planting, all pots were watered by sub-irrigation in greenhouse trays. Pots for the pre-emergence phase were seeded one day before treatment.
Compounds were tested at rates of application equivalent to 8 lbs. of actual compound per acre in a spray volume of 38 gallons per acre. Spray hood constants required to deliver the above volume are as follows:
Two weeks after treatment, pre- and post-emergence injury or control was visually rated, and the results were as shown in the following tables. Pre-emergence data are provided in TABLE III and post-emergence data are provided in TABLE IV, for compounds having the formula illustrated in TABLE I. Correspondingly, pre-emergence and post-emergence data, respectively, are set forth in TABLES V AND VI, for compounds having the formula illustrated in TABLE II.

Crabgrass (CG) [2] = assay: Pre-emergence herbicide test; format: in vivo, Digitaria sanquinalis; settings: Digitaria sanguinalis, pre-emergence, 336 h; 8 lb/acre; two weeks after treatment
How it was run: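 Crabgrass (Digitaria sanquinalis) was surface seeded in 3' plastic pots of potting soil, covered with screened soil, and watered by sub-irrigation in greenhouse trays. Pots were seeded one day before spraying in a hood with a moving belt and fixed nozzle. Plants stayed in the greenhouse on sub-irrigation, and pre-emergence control was rated visually two weeks after treatment.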

Johnson grass (JG) [3] = assay: Pre-emergence herbicide test; format: in vivo, Sorgum helepense; settings: Sorghum halepense, 336 h, 8 lb/acre, two weeks after treatment
How it was run: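 Pots seeded one day before spraying; compound applied pre-emergence at 8 lbs/acre (or 4 lbs/acre) in 38 gallons/acre spray volume. Sub-irrigated in greenhouse; injury/control rated visually two weeks after treatment.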

Bean (BN) [4] = assay: Pre-emergence herbicide test; format: in vivo, Phaseolus vulgaris var. Black Valentine; settings: Phaseolus vulgaris, 336 h, 8 lb/acre, two weeks after treatment
How it was run: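 Black Valentine bean was seeded in potting soil one day before spraying. Compound was applied pre-emergence at 8 lbs/acre (also 4 lbs/acre) in 38 gallons per acre. Plants were sub-irrigated and injury or control was rated visually after two weeks.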

Crabgrass (CG) [5] = assay: Post-emergence herbicide test; format: in vivo, Digitaria sanquinalis; settings: Digitaria sanguinalis, post-emergence, 336 h; 8 lb/acre; two weeks after treatment
How it was run: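 Crabgrass (Digitaria sanquinalis) was surface seeded individually in 3' plastic pots of potting soil, covered with screened soil, and watered by sub-irrigation in greenhouse trays. Planting was staggered so seedlings reached the target stage together. Post-emergence sprays were applied in a hood with a removable belt and fixed nozzle, and control was visually rated two weeks after treatment.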

Turnip (TP) [6] = assay: Pre-emergence herbicide test; format: in vivo, Brassica sp.; settings: Brassica rapa, pre-emergence, 336 h; 8 lb/acre; two weeks after treatment
How it was run: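 Turnip (Brassica sp.) seeds were surface sown in 3' plastic pots of potting soil, covered with a thin layer of screened soil, and sub-irrigated in greenhouse trays. Pots were seeded one day ahead of treatment, sprayed pre-emergence under a hood with a fixed nozzle and moving belt, then kept in the greenhouse.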

Corn (CN) [7] = assay: Pre-emergence herbicide test; format: in vivo; settings: Zea mays, 336 h, 8 lb/acre, two weeks after treatment
How it was run: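 Four corn seeds per pot, sown at seed-diameter depth one day before spraying, got soil surface treatment at 8 lbs/acre (4 lbs/acre formulations also prepared) in 38 gallons/acre. Pots were greenhouse-held with sub-irrigation only. Injury or control was scored visually two weeks after treatment.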

Barnyard grass (BG) [8] = assay: Pre-emergence herbicide test; format: in vivo; settings: Echinochloa crus-galli, 336 h, 8 lb/acre, two weeks after treatment
How it was run: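 Barnyard grass surface-seeded in potting soil and sprayed pre-emergence one day after seeding, at 8 or 4 lb compound/acre in 38 gal/acre spray volume. Pots kept in greenhouse with sub-irrigation only; injury or control rated visually two weeks after treatment.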

Cotton (CT) [9] = assay: Pre-emergence herbicide test; format: in vivo, Gossypium hirsutum var. DPL smooth leaf; settings: Gossypium hirsutum, 336 h, 8 lb/acre, two weeks after treatment
How it was run: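 Crop and weed species seeded one day before treatment, then sprayed pre-emergence at 8 lbs actual compound per acre (also 4 lbs/acre formulations) in 38 gallons per acre. Pots kept in greenhouse with sub-irrigation only; injury or control visually rated two weeks after treatment.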

[10] = tested on: Yellow foxtail grass (YF); assay: Post-emergence herbicide test; format: in vivo, Setaria glauca; settings: Setaria, 336 h, 8 lb/acre, two weeks after treatment
How it was run: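 Potted seedlings grown in greenhouse, planting staggered to reach the target stage together, then sprayed post-emergence at 8 lbs actual compound/acre in 38 gallons/acre (4 lbs/acre formulations also prepared). Sub-irrigated afterwards. Injury or control rated visually two weeks after treatment.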

Barnyard grass (BG) [11] = assay: Post-emergence herbicide test; format: in vivo; settings: Echinochloa crus-galli, 336 h, 8 lb/acre, two weeks after treatment
How it was run: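 Greenhouse pot-grown barnyard grass seedlings sprayed post-emergence at 8 lbs active compound per acre (some at 4 lbs/acre) in 38 gallons per acre, then sub-irrigated. Injury or control rated visually two weeks after treatment.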

[12] = tested on: Yellow foxtail grass (YF); assay: Pre-emergence herbicide test; format: in vivo, Setaria glauca; settings: Setaria, 336 h, 8 lb/acre, two weeks after treatment
How it was run: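 Seeds surface-sown in potting soil one day before spraying; compounds applied pre-emergence at 8 or 4 lbs/acre in 38 gallons/acre spray. Pots held in greenhouse with sub-irrigation only. Injury or control rated visually two weeks after treatment.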

Amaranth pigweed (PW) = assay: Post-emergence herbicide test; format: in vivo, Amaranthus retroflexus; settings: 336 h, 8 lb/acre, two weeks after treatment
How it was run: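 Pot-grown pigweed was sprayed post-emergence at the 1–2 true-leaf stage with compound at rates equivalent to 8 lbs per acre (formulations also prepared for 4 lbs/acre) in 38 gallons per acre, using a hood with fixed nozzle. Plants were sub-irrigated in the greenhouse, and injury or control was rated visually two weeks after treatment.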

Johnson grass (JG) [13] = assay: Post-emergence herbicide test; format: in vivo, Sorgum helepense; settings: Sorghum halepense, 336 h, 8 lb/acre, two weeks after treatment
How it was run: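 Greenhouse pot-grown seedlings sprayed post-emergence at 8 lbs compound per acre (some at 4 lbs/acre) in 38 gallons per acre spray volume. Sub-irrigated thereafter. Injury/control rated visually two weeks after treatment.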

Corn (CN) [14] = assay: Post-emergence herbicide test; format: in vivo; settings: Zea mays, 336 h, 8 lb/acre, two weeks after treatment
How it was run: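 Greenhouse seedlings grown in potting soil and sprayed post-emergence at 8 lbs compound/acre (formulations also made for 4 lbs/acre) in 38 gallons/acre spray volume. Watering by sub-irrigation only. Injury or control rated visually two weeks after treatment.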

Bean (BN) [15] = assay: Post-emergence herbicide test; format: in vivo, Phaseolus vulgaris var. Black Valentine; settings: Phaseolus vulgaris, post-emergence, 336 h; 8 lb/acre; two weeks after treatment
How it was run: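 Snapbean (Phaseolus vulgaris var. Black Valentine) was tested post-emergence. Four seeds were sown in 3' plastic pots of potting soil at a depth equal to the seed diameter, then sub-irrigated in greenhouse trays. Planting dates were staggered so plants were sprayed once primary leaves had expanded, with the growing point at the primary leaf nodes.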

Turnip (TP) [16] = assay: Post-emergence herbicide test; format: in vivo, Brassica sp.; settings: Brassica rapa, post-emergence, 336 h; 8 lb/acre; two weeks after treatment
How it was run: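 A greenhouse post-emergence herbicide test on turnip. Seeds were sown on the surface of potting soil in 3' plastic pots, lightly covered with screened soil and watered from below. Planting was timed so seedlings had 1 or 2 true leaves above the cotyledons at spraying, done in a hood with a fixed nozzle. Control or injury was scored by eye after two weeks.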

Cotton (CT) [17] = assay: Post-emergence herbicide test; format: in vivo, Gossypium hirsutum var. DPL smooth leaf; settings: Gossypium hirsutum, post-emergence, 336 h; 8 lb/acre; two weeks after treatment
How it was run: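 Cotton (Gossypium hirsutum var. DPL smooth leaf) was grown in 3' plastic pots of potting soil, four seeds per pot, planted at a depth equal to the seed diameter and watered by sub-irrigation. At the stage of expanded cotyledons with the first true leaf 1' long, plants were sprayed post-emergence in a hood with a fixed nozzle over a moving belt. Percent control was rated visually two weeks later.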

Compound | herbicidal effectiveness / selectivity, in words [1] | pest or weed control at 8966.8 g/ha (Crabgrass (CG) [2]) | pest or weed control at 8966.8 g/ha (Johnson grass (JG) [3]) | pest or weed control at 8966.8 g/ha (Bean (BN) [4]) | pest or weed control at 8966.8 g/ha (Crabgrass (CG) [5]) | pest or weed control at 8966.8 g/ha (Turnip (TP) [6]) | pest or weed control at 8966.8 g/ha (Corn (CN) [7]) | pest or weed control at 8966.8 g/ha (Barnyard grass (BG) [8]) | pest or weed control at 8966.8 g/ha (Cotton (CT) [9]) | pest or weed control at 8966.8 g/ha [10] | pest or weed control at 8966.8 g/ha (Barnyard grass (BG) [11]) | pest or weed control at 8966.8 g/ha [12] | pest or weed control at 8966.8 g/ha (Amaranth pigweed (PW)) | pest or weed control at 8966.8 g/ha (Johnson grass (JG) [13]) | pest or weed control at 8966.8 g/ha (Corn (CN) [14]) | pest or weed control at 8966.8 g/ha (Bean (BN) [15]) | pest or weed control at 8966.8 g/ha (Turnip (TP) [16]) | pest or weed control at 8966.8 g/ha (Cotton (CT) [17])
CCNC(=O)Nc1nnc(C(F)(F)F)s1 [Example 9] | more selective when applied to a certain crop or weed species | 10% | 10% | 100% | 60% | 10% | 50% | 20% | 30% | 30% | 40% | 20% | 100% | 80% | 30% | 70% | 60% | 50%
O=C(Nc1ccc(Cl)cc1)Nc1nnc(C(F)(F)F)s1 [Example 15] | more selective when applied to a certain crop or weed species | 10% | 10% | 30% | 30% | 10% | 10% | 10% | 80% | 20% | 20% | 10% | 100% | 20% | 20% | 40% | 50% | 60%
